pIC50: −log10 of the molar value. Where two headings read alike, the source gives them in different places.
Molecular target: herpes DNA polymerase (Human herpesvirus 1, UniProt P04293)
Test: herpes DNA polymerase activity assay
Type: biochemical
Conditions: for % Inhibition at Drug Level 1.666 μg/ml / % Inhibition at Drug Level 16.6 μg/ml / % Inhibition at Drug Level 166 μg/ml: fixed dilution; for IC50: variable solution concentrations, read-out: ID50 (the source's name) (converted)
Experimental: The above compounds were tested for herpes DNA polymerase activity in the manner shown in Example 9 of U.S. Pat. No. 4,138,432. The assay, using fixed dilutions of the above compounds, produced the following results:
When variable solution concentrations were used, the results were as follows: […]

Chain of herpes DNA polymerase (P04293 whole entry): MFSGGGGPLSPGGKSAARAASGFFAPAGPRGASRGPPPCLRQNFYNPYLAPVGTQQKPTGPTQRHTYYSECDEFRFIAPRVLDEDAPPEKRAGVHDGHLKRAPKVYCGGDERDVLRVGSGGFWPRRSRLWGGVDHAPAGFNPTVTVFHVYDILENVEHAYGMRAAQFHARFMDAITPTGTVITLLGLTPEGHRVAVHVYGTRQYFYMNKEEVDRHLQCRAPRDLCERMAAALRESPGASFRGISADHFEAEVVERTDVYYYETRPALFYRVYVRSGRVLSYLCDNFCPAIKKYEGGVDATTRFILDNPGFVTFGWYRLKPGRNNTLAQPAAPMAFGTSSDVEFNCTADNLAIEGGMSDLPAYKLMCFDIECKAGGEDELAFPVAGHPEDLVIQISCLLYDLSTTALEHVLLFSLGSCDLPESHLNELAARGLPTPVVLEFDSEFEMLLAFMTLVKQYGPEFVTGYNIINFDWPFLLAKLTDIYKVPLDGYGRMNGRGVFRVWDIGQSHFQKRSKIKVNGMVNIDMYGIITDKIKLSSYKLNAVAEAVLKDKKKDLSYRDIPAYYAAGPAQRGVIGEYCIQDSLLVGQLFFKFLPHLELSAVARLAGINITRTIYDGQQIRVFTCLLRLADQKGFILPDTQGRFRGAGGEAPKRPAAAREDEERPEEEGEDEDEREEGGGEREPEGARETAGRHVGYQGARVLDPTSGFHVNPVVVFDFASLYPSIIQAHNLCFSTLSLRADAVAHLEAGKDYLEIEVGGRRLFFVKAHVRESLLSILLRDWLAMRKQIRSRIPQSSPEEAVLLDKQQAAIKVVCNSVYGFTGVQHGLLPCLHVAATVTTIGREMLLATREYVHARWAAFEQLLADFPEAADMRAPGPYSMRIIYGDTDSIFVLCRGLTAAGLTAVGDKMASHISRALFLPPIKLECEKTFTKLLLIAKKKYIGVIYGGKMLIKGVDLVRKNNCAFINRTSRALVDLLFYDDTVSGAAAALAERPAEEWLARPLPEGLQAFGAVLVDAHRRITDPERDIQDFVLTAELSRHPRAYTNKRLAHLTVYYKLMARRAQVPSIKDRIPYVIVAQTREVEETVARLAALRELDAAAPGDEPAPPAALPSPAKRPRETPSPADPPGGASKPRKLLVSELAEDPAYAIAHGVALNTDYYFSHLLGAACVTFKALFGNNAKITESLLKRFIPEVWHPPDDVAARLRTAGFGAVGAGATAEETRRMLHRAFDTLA

SMILES	pIC50	% Inhibition at Drug Level 1.666 μg/ml	% Inhibition at Drug Level 16.6 μg/ml	% Inhibition at Drug Level 166 μg/ml	IC50
O=C(O)CNC(=O)CP(=O)(O)O [Example 1, PAA-Gly]	4.54	33%	56%	72%	–
C[C@@H](NC(=O)CP(=O)(O)O)C(=O)O [Example 2 (D), PAA-D-Ala]	4.50	19%	68%	87%	–
C[C@H](NC(=O)CP(=O)(O)O)C(=O)O [Example 2 (L), PAA-L-Ala]	–	–	–	59%	–
O=C(O)CCNC(=O)CP(=O)(O)O [Example 3, PAA-β-Ala]	4.30	15%	59%	88%	–
O=C(O)CC(NC(=O)CNC(=O)CP(=O)(O)O)C(=O)O (stereo not shown) [Example 4, PAA-Gly-Asp]	–	39%	77%	93%	10.6 µM
N=C(N)NCCCC(NC(=O)CP(=O)(O)O)C(=O)O (stereo not shown) [PAA-Arg, reference compound]	–	–	–	–	203 µM
O=C(O)C[C@H](NC(=O)CP(=O)(O)O)C(=O)O [PAA-L-Asp, reference compound]	–	–	–	–	141 µM
O=C(O)CP(=O)(O)O [PAA-Na, reference compound]	–	82%	98%	99%	–

From patent US4272528A, “Phosphonoacetyl aminoacids” (Abbott Laboratories, priority 1980, dated 1981)
